Data as given in US20240166612A1, “ARYLTHIOETHER ACETAMIDE AND RELATED COMPOUNDS AND THEIR USE IN TREATING MEDICAL CONDITIONS” (X-Biotix Therapeutics, Inc., priority 2021, published 2024).
In brackets after ≈: the same amount, converted by molar mass.

Legend:
[1] = test system: Wild-type P. aeruginosa PAO1; test: Broth microdilution MIC, wild-type P. aeruginosa PAO1; assay type: cell-based; settings: Pseudomonas aeruginosa; wild-type P. aeruginosa PAO1, 37° C., 18 h; read-out: PAO1 WT MIC
Experimental: (§1) Exemplary compounds from the above Examples were tested to determine their minimum inhibitory concentration (MIC) for exemplary strains of Escherichia and Pseudomonas bacteria using broth microdilution methods. Assay procedures and results are described below.
(§2) Broth microdilution assays were conducted according to Clinical and Laboratory Standards Institute guidelines (CLSI, M07-A^11: Clinical and Laboratory Standards Institute. Methods for Dilution Antimicrobial Susceptibility Tests for Bacteria that Grow Aerobically; Approved Standard-11th Edition. Wayne, PA: CLSI, 2018). Briefly, bacterial suspensions were adjusted to a density equivalent to a 0.5 McFarland standard and diluted in sterile, cation-adjusted Mueller-Hinton broth (Beckton Dickinson) to yield a final inoculum between 2×10^5 and 8×10^5 colony-forming units (CFU)/mL. An inoculum volume of 98 μL was added to wells containing 2 μL of 2-fold serial dilutions of drug (prepared in DMSO). All inoculated microdilution trays were incubated in ambient air at 37° C. for 18 h. […] Performance of the assay was monitored by the use of laboratory quality-control strains (S. aureus ATCC 29213 and P. aeruginosa ATCC 27853) and levofloxacin, a compound with a defined MIC spectrum, in accordance with CLSI guidelines (CLSI, M100Ed29: Clinical and Laboratory Standards Institute. Performance Standards for Antimicrobial Susceptibility Testing, 29th Edition. Wayne, PA: CLSI, 2018).
(§3) Multiple enterobacteriaceae strains were tested, including both wild-type strains and multi-drug resistance pump deficient mutants. Specific strains tested included the following: • Wild-type P. aeruginosa PAO1, • P. aeruginosa PAO1 ΔmexABoprM—Disabled multi-drug efflux system Δ(MexAB-OprM), • P. aeruginosa PAO397—PAO1Δ(mexAB-oprM) Δ(mexCD-oprJ) Δ(mexEF-oprN) Δ(mexJK) Δ(mexXY) ΔopmH, • P. aeruginosa LESB58—Clinical isolate; colistin-resistant, isolated in the United Kingdom in 1988 from a patient with cystic fibrosis • E. coli JW0452-3 (BW25113 JacrA::kan)—Disabled multi-drug efflux system (AcrAB-TolC).
(§4) Experimental results are provided in Table 11, which provides MIC values for wild-type P. aeruginosa PAO1 (“PAO1 WT MIC”), P. aeruginosa PAO ΔmexABoprM (“PAO1 KO MIC”), P. aeruginosa PAO397 (“PAO397 KO MIC”), P. aeruginosa LESB58 (“LESB58”), and E. coli JW0452-3 (BW25113 JacrA::kan) (“E. coli KO MIC”).

P. aeruginosa LESB58 = test: Broth microdilution MIC, P. aeruginosa LESB58; assay type: cell-based; settings: Pseudomonas aeruginosa; P. aeruginosa LESB58 clinical isolate, colistin-resistant, 37° C., 18 h
Experimental: as §1, §2, §3, §4

P. aeruginosa PAO397 = test: Broth microdilution MIC, P. aeruginosa PAO397; assay type: cell-based; settings: Pseudomonas aeruginosa, PAO397, 18 h, read-out: PAO397 KO MIC
Experimental: as §1, §2, §3, §4

[2] = molecular target: T1, recombinant LpxA enzyme (P. aeruginosa) (Pseudomonas aeruginosa, UniProt Q9X6P4); test: LpxA in vitro substrate acylation assay with RapidFire MS analysis (P. aeruginosa); assay type: biochemical; settings: P. aeruginosa enzyme 0.5 nM, PaACP-C10, 30 min
T1 sequence (Q9X6P4 1-258): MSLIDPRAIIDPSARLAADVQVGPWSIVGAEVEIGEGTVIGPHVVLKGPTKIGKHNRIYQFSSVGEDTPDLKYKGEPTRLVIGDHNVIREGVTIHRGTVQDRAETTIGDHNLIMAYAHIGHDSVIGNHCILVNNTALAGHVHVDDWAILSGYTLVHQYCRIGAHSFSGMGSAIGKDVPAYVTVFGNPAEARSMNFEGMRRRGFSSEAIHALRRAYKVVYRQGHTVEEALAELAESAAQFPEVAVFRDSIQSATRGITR
Experimental: Exemplary compounds from the above Examples were tested for ability to inhibit LpxA activity using an in vitro substrate acylation assay with RapidFire™ MS analysis. Assay procedures and results are described below.
Reactions were carried out in a final volume of 30 μL with 25 mM HEPES (pH 7.3), 150 mM NaCl, 2 mM DTT, 0.01% BSA, 5 μM UDP-GlcNac, recombinant LpxA enzyme (0.5 nM P. aeruginosa or 1.0 nM E. coli, both produced at Evotec), 0.5 μM acyl-transfer reagent (decanoyl P. aeruginosa acyl-carrier protein [PaACP-C10] or myristoyl E. coli acyl-carrier protein [EcACP-C1-4], both produced at Evotec), and 1% DMSO containing test compound. After 30 min incubation at room temperature, reactions were stopped by addition of 30 μL of 10% TCA in water.
Samples were centrifuged (4350 rpm, 4° C., 5 min), and then subjected to RapidFire™ MS analysis on an Agilent RapidFire 300 coupled to an Agilent 6460 triple-quadrupole mass spectrometer. Analytes were retained on a C4 (type A) cartridge using the following solvents and flow rates: • Pump 1—H2O with 5 mM NH4OAc at 2.0 mL/min, • Pump 2—MeOH/H2O (90/10) at 1.5 mL/min, • Pump 3—MeOH/H2O (90/10) at 0.5 mL/min, and • Pump 4—ACN (organic)/H2O (aqueous). Substrate and product of the reaction were detected in negative mode ESI-MS/MS by MRM (multiple reaction monitoring) of transitions 606.0/385.0 (UDP-GlcNAc substrate) and 776.2/385.0 (UDP-3-O—(R-3-hydroxydecanoyl)-GlcNAc product, for P. aeruginosa LpxA assay) or 832.2/385.0 (UDP-3-O—(R-3-hydroxymyristoyl)-GlcNAc product, for E. coli LpxA assay).
For IC50 determinations, peak areas of the substrate and product were compared to compute the proportion of product formed by the LpxA enzyme at each compound concentration.

Compound	MIC [1] [µg/mL]	MIC (P. aeruginosa LESB58) [µg/mL]	MIC (P. aeruginosa PAO397) [µg/mL]	IC50 [2] [nM]
CCc1c(F)cc(F)cc1OC(C)C(=O)N(Cc1nnc(N)o1)Cc1ccc(C#N)cc1F (single isomer, unassigned) [Compound No. 100]	1 to 16 (≈ 2.18 to 34.8 µM)	1 to 16 (≈ 2.18 to 34.8 µM)	–	–
N#Cc1ccc(CN(CC(=O)NC2COC2)C(=O)CSc2ccccc2Cl)cc1 [Compound No. 1, 2-[[2-(2-Chlorophenyl)sulfanylacetyl]-[(4-cyanophenyl)methyl]amino]-N-(oxetan-3-yl)acetamide]	–	–	1 to 16 (≈ 2.33 to 37.2 µM)	–
NCc1ccc(CN(Cc2nnc(N)o2)C(=O)CSc2ccccc2Cl)cc1 [Compound No. 61, N-[[4-(Aminomethyl)phenyl]methyl]-N-[(5-amino-1,3,4-oxadiazol-2-yl)methyl]-2-(2-chlorophenyl)sulfanyl-acetamide]	> 64	–	16 to 64 (≈ 38.3 to 153 µM)	> 1000
N#Cc1ccc(CN(CC(=O)NC2CCNCC2)C(=O)CSc2ccccc2Cl)cc1 [compound 4]	> 64	–	16 to 64 (≈ 35 to 140 µM)	–
N#Cc1ccc(CN(Cc2nnc(N)o2)C(=O)COc2ccccc2Cl)cn1 [compound 17]	> 64	–	1 to 16 (≈ 2.51 to 40.1 µM)	–
N#Cc1ccc(CN(C(=O)CSc2ccccc2Cl)C2(c3nnc(N)o3)CC2)cc1 [compound 22]	> 64	–	1 to 16 (≈ 2.27 to 36.4 µM)	–
N#Cc1ccc(CN(C(=O)CSc2ccccc2Cl)C2(c3nnc(N)o3)CC2)c(F)c1 [compound 23]	> 64	–	1 to 16 (≈ 2.18 to 34.9 µM)	20 to 100
N#Cc1ccc(CN(Cc2cc[nH]n2)C(=O)CSc2ccccc2Cl)cc1 [compound 49]	> 64	–	1 to 16 (≈ 2.52 to 40.3 µM)	100 to 1000
N#Cc1ccc(CN(Cc2cn[nH]c2)C(=O)CSc2ccccc2Cl)cc1 [compound 50]	> 64	–	1 to 16 (≈ 2.52 to 40.3 µM)	100 to 1000
CC(C)c1ccccc1OCC(=O)N(Cc1ccc(C#N)cc1)Cc1nnc(N)o1 [compound 53]	> 64	–	1 to 16 (≈ 2.47 to 39.5 µM)	–
N#Cc1ccc(CN(Cc2ccc3cn[nH]c3c2)C(=O)CSc2ccccc2Cl)cc1 [compound 71]	> 64	–	–	> 1000
Cc1ncc(CN(Cc2ccc(C#N)cc2)C(=O)CSc2ccccc2Cl)[nH]1 [compound 75]	> 64	–	1 to 16 (≈ 2.43 to 38.9 µM)	–
[2H]C([2H])(Oc1cc(F)cc(F)c1C([2H])([2H])C([2H])([2H])[2H])C(=O)N(Cc1nnc(N)o1)Cc1ccc(C#N)cc1F [compound 77, N-[(5-amino-1,3,4-oxadiazol-2-yl)methyl]-N-[(4-cyano-2-fluoro-phenyl)methyl]-2,2-dideuterio-2-[3,5-difluoro-2-(1,1,2,2,2-pentadeuterioethyl)phenoxy]acetamide]	1 to 16 (≈ 2.21 to 35.4 µM)	1 to 16 (≈ 2.21 to 35.4 µM)	–	–
CCc1c(F)cc(F)cc1OCC(=O)N(Cc1nnc(N)o1)Cc1ccc(S(N)(=O)=O)cc1F [compound 79, N-[(5-Amino-1,3,4-oxadiazol-2-yl)methyl]-2-(2-ethyl-3,5-difluoro-phenoxy)-N-[(2-fluoro-4-sulfamoyl-phenyl)methyl]acetamide]	1 to 16 (≈ 2 to 32 µM)	1 to 16 (≈ 2 to 32 µM)	–	–
Nc1nnc(CN(Cc2ccc(S(N)(=O)=O)cc2F)C(=O)COc2cc(F)cc(F)c2C2CC2)o1 [compound 80]	16 to 64 (≈ 31.3 to 125 µM)	1 to 16 (≈ 1.96 to 31.3 µM)	–	–
N#Cc1ccc(CN(Cc2nnc(N)o2)C(=O)COc2cc(F)cc(F)c2C2CC2)c(F)c1 [compound 81]	16 to 64 (≈ 35 to 140 µM)	1 to 16 (≈ 2.19 to 35 µM)	–	–
[2H]C([2H])(Oc1cc(F)cc(F)c1C([2H])([2H])C([2H])([2H])[2H])C(=O)N(Cc1ccc(C#N)nc1)Cc1nnc(N)o1 [compound 82]	> 64	16 to 64 (≈ 36.7 to 147 µM)	–	–

Compound	MIC [1] [µg/mL]	MIC (P. aeruginosa LESB58) [µg/mL]	MIC (P. aeruginosa PAO397) [µg/mL]	IC50 [2] [nM]
N#Cc1ccc(CN(Cc2nnc(N)o2)C(=O)COc2cc(F)cc(F)c2C2CC2)cn1 [compound 85]	> 64	16 to 64 (≈ 36.3 to 145 µM)	–	–
CCc1ccccc1SCC(=O)N(CC(=O)NC)Cc1ccc(-n2cncn2)cc1 [compound 90]	> 64	–	–	100 to 1000
CNC(=O)CN(Cc1ccc(-n2cncn2)cc1)C(=O)CSc1ccccc1Cl [compound 91]	> 64	–	–	–
C[C@@H](Sc1cc(F)cc(F)c1Cl)C(=O)N(Cc1nnc(N)o1)Cc1ccc(C#N)cc1F [compound 98]	> 64	> 64	–	–
N#Cc1ccc(CN(Cc2nnc(N)o2)C(=O)/C=C/c2ccccc2Cl)c(F)c1 [compound 99]	> 64	> 64	–	–
CCc1c(F)cc(F)cc1O[C@@H](C)C(=O)N(Cc1nnc(N)o1)Cc1ccc(C#N)cc1F [compound 101]	> 64	> 64	–	–
C[C@H](Sc1cc(F)cc(F)c1Cl)C(=O)N(Cc1nnc(N)o1)Cc1ccc(C#N)cc1F [compound 103]	> 64	> 64	–	–
[2H]C([2H])(Oc1cc(F)cc(F)c1C([2H])([2H])C([2H])([2H])[2H])C(=O)N(Cc1nnc(N)o1)Cc1ccc(S(N)(=O)=O)cc1F [compound 111, N-[(5-Amino-1,3,4-oxadiazol-2-yl)methyl]-2,2-dideuterio-2-[3,5-difluoro-2-(1,1,2,2,2-pentadeuterioethyl)phenoxy]-N-[(2-fluoro-4-sulfamoyl-phenyl)methyl]acetamide]	16 to 64 (≈ 31.6 to 126 µM)	1 to 16 (≈ 1.97 to 31.6 µM)	–	–
[2H]CC([2H])c1c(F)cc(F)cc1OCC(=O)N(Cc1nnc(N)o1)Cc1ccc(C#N)cc1F (stereo not shown) [compound 112]	1 to 16 (≈ 2.24 to 35.8 µM)	1 to 16 (≈ 2.24 to 35.8 µM)	–	–
[2H]C([2H])C([2H])([2H])c1ccccc1OCC(=O)N(Cc1nnc(N)o1)Cc1ccc(C#N)cc1F [compound 113]	> 64	16 to 64 (≈ 38.7 to 155 µM)	–	–
[2H]C([2H])(Oc1ccccc1C([2H])([2H])C([2H])([2H])[2H])C(=O)N(Cc1nnc(N)o1)Cc1ccc(C#N)cc1F [compound 114]	> 64	16 to 64 (≈ 38.4 to 154 µM)	–	–
N#Cc1ccc(CN(Cc2nnc(N)o2)C(=O)CSc2cc(CN)ccc2Cl)cn1 [compound 115]	> 64	–	–	–
C[C@H](Oc1ccccc1Cl)C(=O)N(Cc1ccc(C#N)cc1)Cc1nnc(N)o1 [compound 117]	–	–	–	> 1000
N#Cc1ccc(CN(Cc2nnc(N)o2)C(=O)CSc2ccccc2CC(F)(F)F)c(F)c1 [compound 118]	> 64	> 64	–	–
NCCOc1ccc(Cl)c(SCC(=O)N(Cc2ccc(C(N)=O)c(C(=O)O)c2)Cc2nnc(N)o2)c1 [compound 119]	–	–	–	> 1000
Nc1nnc(CN(Cc2ccc(S(N)(=O)=O)cc2)C(=O)COc2cc(F)cc(F)c2Cl)o1 [compound 120]	> 64	16 to 64 (≈ 32.8 to 131 µM)	–	–
N#Cc1ccc(CN(Cc2nnc(N)o2)C(=O)COc2ccc(F)cc2Cl)c(F)c1 [compound 121]	> 64	> 64	–	–
